Patent publication US20070225335A1, “Pyrazole Derivatives for Treating Condit Ions Mediated by Activation of the Adeno Sine A2B or A3 Receptor” (priority 2004, published 2007)

Target: T1, human adenosine A2b receptor (Homo sapiens, UniProt P29275)
T1 construct: expressed in transfected cells; host or cells: CHO (Chinese Hamster Ovary) cells co-transfected with the reporter plasmid pCRE-LUCI
T1 sequence (P29275 1-332): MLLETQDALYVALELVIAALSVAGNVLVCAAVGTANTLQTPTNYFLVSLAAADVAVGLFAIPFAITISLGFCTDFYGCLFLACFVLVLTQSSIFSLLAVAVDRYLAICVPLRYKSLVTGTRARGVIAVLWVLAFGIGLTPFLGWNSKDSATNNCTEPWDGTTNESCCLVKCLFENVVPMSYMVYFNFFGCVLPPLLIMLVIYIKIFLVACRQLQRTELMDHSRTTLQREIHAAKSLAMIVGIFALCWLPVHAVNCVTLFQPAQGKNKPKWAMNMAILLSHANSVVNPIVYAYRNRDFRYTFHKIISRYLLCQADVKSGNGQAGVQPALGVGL
Assay: Adenosine A2b receptor reporter gene assay (luciferase, CHO-A2b cells, NECA agonist)
Type: cell-based
Conditions: CHO cells with pCRE-LUCI and human A2b receptor; shift of NECA concentration-response curve; antagonist at 100 nM or 1 μM; KB=[antagonist]/(concentration ratio−1)
Method: Adenosine A2b Receptor Reporter Gene Assay a) Culturing of Chinese Hamster Ovary (CHO) A2b Cell Line
CHO cells transfected with a Luciferase-expressing reporter plasmid (pCRE-LUCI) and with a plasmid carrying the human adenosine A2b receptor structural gene (pA2bRCV) are routinely cultured in Dulbecco's Modified Eagle Medium (DMEM)—supplemented with 10% v/v fetal calf serum (FCS), 2 mM L-glutamine, 0.4 mg/ml L-proline, 1 nM sodium selenite, 0.5 mg/ml Hygromycin B and 1 mg/ml Geneticin—at 37° C., 5% CO2 and 100% humidity. The cells are left to grow to confluence for 4-5 days. The cells obtained are passaged using trypsin/EDTA and split at a ratio of 1 in 5. […]
b) Preparation of cells for assay […]
5′-N-ethylcarboxamidoadenosine (NECA), an adenosine A2b agonist, is prepared as a […] solution in DMSO and then diluted to 100 μM with Assay Buffer. […] 100 μl of Steady-Glo, a Luciferase assay substrate from Promega, is added to all wells to lyse the cells and generate luminescence in proportion to the amount of Lucifrease produced. The plates are left for a minimum of 5 minutes before being read on the luminescence program of a Topcount NXT microplate scintillation counter (ex Packard). […]

Row | Structure (SMILES) | Kb
1 | N#Cc1ccc(NC(=O)c2cnn(-c3cccc(F)c3)c2-c2ccncc2)cc1 [Example 4, 1-(3-Fluoro-phenyl)-5-pyridin-4-yl-1H-pyrazole4-carboxylic acid (4-cyano-phenyl)-amide] | 139 nM
2 | O=C(Nc1cccnc1)c1cc(-c2ccncc2)n(-c2cccc(F)c2)n1 [Example 33, 1-(3-Fluoro-phenyl)-5-pyridin-4-yl-1H-pyrazole-3-carboxylic acid pyridin-3-ylamide] | 188 nM
